Values of other authors, collected in patent US20200396998A1, “HERBICIDAL COMBINATIONS” (UPL LTD, priority 2017, published 2020).

System: broadleaf weed
Settings: saflufenacil alone; early season broadleaf weed control

SMILES: CC(C)N(C)S(=O)(=O)NC(=O)c1cc(-n2c(=O)cc(C(F)(F)F)n(C)c2=O)c(F)cc1Cl [Saflufenacil, N′{2-chloro-4-fluoro-5-[1,2,3,6-tetrahydro-3-methyl-2,6-dioxo-4-(trifluoromethyl)pyrimidin-1-yl]benzoyl}-N-isopropyl-N-methylsulfamide]
- Weed control efficacy over time, in words: reduced beyond 30 days after treatment
